Some results are limits rather than exact numbers.

One test concerns the target T1, IRAK4 (Homo sapiens, UniProt Q9NWZ3).
T1 construct: His-TEV-IRAK4 (1-460); His (N); TEV cleavage site (N)
T1 sequence (Q9NWZ3 1-460): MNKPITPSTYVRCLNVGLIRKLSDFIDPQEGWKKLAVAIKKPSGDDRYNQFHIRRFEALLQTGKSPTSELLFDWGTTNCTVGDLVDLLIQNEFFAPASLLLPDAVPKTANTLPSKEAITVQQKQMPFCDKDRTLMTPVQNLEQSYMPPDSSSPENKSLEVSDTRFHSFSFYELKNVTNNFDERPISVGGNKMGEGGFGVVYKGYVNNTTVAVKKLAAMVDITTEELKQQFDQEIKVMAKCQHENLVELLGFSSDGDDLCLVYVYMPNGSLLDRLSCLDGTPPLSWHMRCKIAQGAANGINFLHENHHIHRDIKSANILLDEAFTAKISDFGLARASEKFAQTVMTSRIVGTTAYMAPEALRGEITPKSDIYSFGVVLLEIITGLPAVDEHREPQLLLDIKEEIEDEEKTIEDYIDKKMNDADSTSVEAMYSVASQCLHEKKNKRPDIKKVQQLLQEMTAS
The test can be described thus: IRAK4 enzymatic assay (ADP-Glo luminescence). It counts as biochemical. The conditions noted are these: human recombinant His-TEV-IRAK4 (1-460), STK1-biotin peptide substrate. The procedure: IRAK4 is a human purified recombinant enzyme (His-TEV-IRAK4 (1-460)).
In this assay, IRAK4 hydrolyses ATP, autophosphorylates and phosphorylates a Serine/Threonine generic peptidic substrate (STK: 61ST1BLC from CisBio International). Measurement of IRAK-4 inhibition is performed in 384-well format based on a luminescence assay (ADP-Glo™ Kinase Assay from Promega). Purified human recombinant IRAK4 ([…]) and serial diluted compounds in DMSO (range of concentration from 10 μM to 0.5 nM) or controls (1% DMSO) are incubated for 15 minutes at RT in assay buffer containing 50 mM Hepes pH 7.0, Fatty acid-free BSA 0.1%, Dithiothreitol (DTT) 2 mM, MgCl2 10 mM, EGTA 0.5 mM, Triton X-100 0.01%, MnCl2 5 mM. The kinase reaction is then initiated by the addition of ATP ([…]) and the peptidic substrate STK1-biotin peptide (300 nM). After 2 hours of incubation at RT, the reaction is stopped and the unconsumed ATP depleted by the addition of ADP-Glo™ Reagent according to supplier instructions. After 40 minutes of incubation at RT, the Kinase Detection Reagent is then added to the assay plate according to supplier instructions. After 20 minutes of incubation at RT, the luminescence signal is measured with a plate-reading luminometer (PerkinElmer Envision or equivalent reader).
For orientation: ADP-Glo first removes unused ATP, then detects ADP through luciferase.

Test [1] relates to TLR7 induced IL-6 secretion in human mononuclear cells (PBMC's). The test can be described thus: TLR7 induced IL-6 in human PBMC's. It counts as cell-based. The conditions noted are these: Homo sapiens, PBMC, TLR7 specific ligand 2 uM overnight, IL-6 AlphaLISA. How it is done:
TLR7 Induced IL-6 in Human PBMC's
Human PBMC assay was used as one of the functional assaya to monitor the activity of IRAK1 and IRAK4 small molecule inhibitors on TLR7 induced IL-6 secretion in human mononuclear cells (PBMC's). Human PBMCs were prepared from buffy coats (whole blood enriched with leukocytes and platelets) obtained from healthy volunteers used either fresh or frozen are plated in assay media (RPMI+2% P/S/L-glu+10% HI-FBS) and pre-treated with compounds in DMSO/media (range of concentrations from 25 uM to 0.4 nM) or controls (0.25% DMSO) for 30 minutes at 37° C. in assay media. Following pre-treatment with IRAK1 and IRAK4 inhibitors, PBMC's were stimulated with TLR7 specific ligand (2 uM) overnight (16-18 hrs) at 37° C. After incubation supernatant was transferred to 384 well PE AlphaPlate-384 (6005350) and IL-6 is quantified using Perkin Elmer IL-6 Alpha LISA kit (AL223C). Plates were read on an Envision® plate reader with Alpha Technology®.

The target of the next test is T2, IRAK1 (Homo sapiens, UniProt P51617).
T2 construct: His-TEV-IRAK1 (194-712); His (N); TEV cleavage site (N)
T2 sequence (P51617 194-712): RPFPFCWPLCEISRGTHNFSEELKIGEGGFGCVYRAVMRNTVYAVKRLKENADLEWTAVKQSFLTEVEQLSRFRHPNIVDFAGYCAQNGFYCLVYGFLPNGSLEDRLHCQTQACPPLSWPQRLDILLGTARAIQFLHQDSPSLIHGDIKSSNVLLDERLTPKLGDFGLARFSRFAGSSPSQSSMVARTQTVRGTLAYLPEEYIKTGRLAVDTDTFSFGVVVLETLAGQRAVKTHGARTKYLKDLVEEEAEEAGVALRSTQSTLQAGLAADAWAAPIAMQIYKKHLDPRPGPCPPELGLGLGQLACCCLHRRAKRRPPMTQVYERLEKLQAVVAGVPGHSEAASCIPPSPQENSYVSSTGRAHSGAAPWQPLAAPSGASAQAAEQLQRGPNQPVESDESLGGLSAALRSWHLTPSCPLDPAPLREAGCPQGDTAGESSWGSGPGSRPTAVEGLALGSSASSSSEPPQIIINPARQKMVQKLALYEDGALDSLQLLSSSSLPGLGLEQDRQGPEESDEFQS
Description: IRAK1 enzymatic assay (ADP-Glo luminescence). Particulars: human recombinant His-TEV-IRAK1 (194-712), ATP 1 μM; read-out: IRAK 1 IC50. It counts as biochemical. The procedure:
IRAK1 is a human purified recombinant enzyme (His-TEV-IRAK1 (194-712))
In this assay, IRAK1 hydrolyses ATP and autophosphorylates. Measurement of IRAK-1 inhibition is performed in 384-well format based on luminescence assay (ADP-Glo™ Kinase Assay from Promega). Purified human recombinant IRAK1 ([…]) and serial diluted compounds in DMSO (range of concentration from 10 μM to 0.5 nM) or controls (1% DMSO) are incubated for 15 minutes at RT in assay buffer containing 50 mM Hepes pH 7.0, Fatty acid-free BSA 0.1%, Dithiothreitol (DTT) 2 mM, MgCl2 10 mM, EGTA 0.5 mM, Triton X-100 0.01%. The kinase reaction is then initiated by the addition of ATP at a concentration of 1 μM. After 2 hours of incubation at RT, the reaction is stopped and the unconsumed ATP depleted by the addition of ADP-Glo™ Reagent according to supplier instructions. After 40 minutes of incubation at RT, the Kinase Detection Reagent is then added to the assay plate according to supplier instructions. After 20 minutes of incubation at RT, the luminescence signal is measured with a luminometer (PerkinElmer Envision or equivalent reader).

As a reminder, the IC50 is the midpoint of a concentration-inhibition curve. As to `CC(=O)N1CCC(c2ccc3c(c2)[nH]/c(=N\C(=O)c2cccc(C(F)(F)F)c2)n3CCCO)CC1` [Compound 13, (E)-N-(5-(1-acetylpiperidin-4-yl)-1-(3-hydroxypropyl)-1H-benzo[d]imidazol-2(3H)-ylidene)-3-(trifluoromethyl)benzamide], the IC50 on IRAK4 is at most 100 nM; in test [1] it was 100 to 1000 nM; on IRAK1, at most 100 nM.
In the case of `CC(=O)N1CCCC(c2ccc3c(c2)[nH]/c(=N\C(=O)c2cccc(C(F)(F)F)c2)n3CCCO)C1` (stereo not drawn) [Compound 14, (E)-N-(5-(1-acetylpiperidin-3-yl)-1-(3-hydroxypropyl)-1H-benzo[d]imidazol-2(3H)-ylidene)-3-(trifluoromethyl)benzamide], the IC50 (on IRAK4; in test [1]; at IRAK1) was at most 100 nM in each case.
As for `CC(=O)N1C2CCC1CC(c1ccc3c(c1)[nH]/c(=N\C(=O)c1cccc(C(F)(F)F)c1)n3CCCO)C2` (stereo not drawn) [Compound 15, (E)-N-(5-(8-acetyl-8-azabicyclo[3.2.1]octan-3-yl)-1-(3-hydroxypropyl)-1H-benzo[d]imidazol-2(3H)-ylidene)-3-(trifluoromethyl)benzamide], the IC50 (on IRAK4; in test [1]; at IRAK1) was at most 100 nM throughout.
As to `CN1CCCC(c2ccc3c(c2)[nH]/c(=N\C(=O)c2cccc(C(F)(F)F)c2)n3C[C@](C)(F)CO)C1=O` (stereo partly drawn) [Compound 16, (E)-N-(1-((S)-2-fluoro-3-hydroxy-2-methylpropyl)-5-(1-methyl-2-oxopiperidin-3-yl)-1H-benzo[d]imidazol-2(3H)-ylidene)-3-(trifluoromethyl)benzamide], the figures for the IC50 (on IRAK4; in test [1]; at IRAK1) were at most 100 nM, 100 to 1000 nM and 100 to 1000 nM, respectively.
In the case of `C=CCCn1/c(=N/C(=O)c2cccc(C(F)(F)F)c2)[nH]c2cc(C3CCN(C)C3=O)ccc21` (stereo not drawn) [Compound 17, N-[1-But-3-enyl-5-(1-methyl-2-oxo-pyrrolidin-3-yl)-1,3-dihydro-benzoimidazol-(2E)-ylidene]-3-trifluoromethyl-benzamide], the IC50 on IRAK4 was at most 100 nM; in test [1], 100 to 1000 nM; on IRAK1, 100 to 1000 nM.
`C=CCCn1/c(=N/C(=O)c2cccc(C(F)(F)F)c2)[nH]c2cc(C3CCCN(C)C3=O)ccc21` (stereo not drawn) [Compound 18, N-[1-But-3-enyl-5-(1-methyl-2-oxo-piperidin-3-yl)-1,3-dihydro-benzoimidazol-(2E)-ylidene]-3-trifluoromethyl-benzamide]: the IC50 is at most 100 nM at IRAK4, 100 to 1000 nM in test [1] and 100 to 1000 nM at IRAK1.
On to `C=CCn1/c(=N/C(=O)c2cccc(C(F)(F)F)c2)[nH]c2cc(C3CCN(C)C3=O)ccc21` (stereo not drawn) [Compound 19, N-[1-Allyl-5-(1-methyl-2-oxo-pyrrolidin-3-yl)-1,3-dihydro-benzoimidazol-(2E)-ylidene]-3-trifluoromethyl-benzamide], for which the half-maximal inhibitory concentration (IC50) at IRAK4 was at most 100 nM; in test [1], 100 to 1000 nM; at IRAK1, 100 to 1000 nM.
`CN1CCC(c2ccc3c(c2)[nH]/c(=N\C(=O)c2cccc(C(F)(F)F)c2)n3CC(O)CO)C1=O` (stereo not drawn) [Compound 20, N-[1-(2,3-Dihydroxy-propyl)-5-(1-methyl-2-oxo-pyrrolidin-3-yl)-1,3-dihydro-benzoimidazol-(2E)-ylidene]-3-trifluoromethyl-benzamide]: the IC50 at IRAK4 was at most 100 nM; in test [1], 100 to 1000 nM; on IRAK1 it was 100 to 1000 nM.
For `CN1CCC(c2ccc3c(c2)[nH]/c(=N\C(=O)c2cccc(C(F)(F)F)c2)n3CCC(O)CO)C1=O` (stereo not drawn) [Compound 21, N-[1-(3,4-Dihydroxy-butyl)-5-(1-methyl-2-oxo-pyrrolidin-3-yl)-1,3-dihydro-benzoimidazol-(2E)-ylidene]-3-trifluoromethyl-benzamide], the concentration for half-maximal inhibition (IC50) at IRAK4 is at most 100 nM; in test [1] it was at most 100 nM; at IRAK1, 100 to 1000 nM.
As to `CN1CCCC(c2ccc3c(c2)[nH]/c(=N\C(=O)c2cccc(C(F)(F)F)c2)n3CCC(O)CO)C1=O` (stereo not drawn) [Compound 22, N-[1-(3,4-Dihydroxy-butyl)-5-(1-methyl-2-oxo-piperidin-3-yl)-1,3-dihydro-benzoimidazol-(2E)-ylidene]-3-trifluoromethyl-benzamide], the results for the IC50 (at IRAK4; in test [1]; at IRAK1) were at most 100 nM, at most 100 nM and 100 to 1000 nM, respectively.
In the case of `CN1CCC(c2ccc3c(c2)nc(NC(=O)c2cccc(C(F)(F)F)c2)n3CCCO)C1=O` (stereo not drawn) [Compound 23, N-[1-(3-hydroxypropyl)-5-(1-methyl-2-oxopyrrolidin-3-yl)-1H-1,3-benzodiazol-2-yl]-3-(trifluoromethyl)benzamide], the values for the concentration for half-maximal inhibition (IC50) (on IRAK4; in test [1]; at IRAK1) were at most 100 nM, at most 100 nM and 100 to 1000 nM, respectively.
For `CN1CC[C@H](c2ccc3c(c2)nc(NC(=O)c2cccc(C(F)(F)F)c2)n3CCCO)C1=O` [Compound 23b, N-[1-(3-hydroxypropyl)-5-[(3R)-1-methyl-2-oxopyrrolidin-3-yl]-1H-1,3-benzodiazol-2-yl]-3-(trifluoromethyl) benzamide], the concentration for half-maximal inhibition (IC50) at IRAK4 was at most 100 nM; in test [1], 100 to 1000 nM; at IRAK1, 100 to 1000 nM.
In the case of `CN1C[C@H](c2ccc3c(c2)nc(NC(=O)c2cccc(C(F)(F)F)c2)n3CCCO)C(C)(C)C1=O` [Compound 25b, N-[1-(3-hydroxypropyl)-5-[(3R)-1,4,4-trimethyl-5-oxopyrrolidin-3-yl]-1H-1,3-benzodiazol-2-yl]-3-(trifluoromethyl)benzamide], the IC50 on IRAK4 is at most 100 nM; in test [1], 100 to 1000 nM; on IRAK1 it was 100 to 1000 nM.
As for `CN1CC[C@@](C)(c2ccc3c(c2)nc(NC(=O)c2cccc(C(F)F)c2)n3CCCO)C1=O` [Compound 30b, N-{5-[(3S)-1,3-dimethyl-2-oxopyrrolidin-3-yl]-1-(3-hydroxypropyl)-1H-1,3-benzodiazol-2-yl}-3-(diifluoromethyl)benzamide], the IC50 on IRAK4 was at most 100 nM; in test [1], 1000 to 10000 nM; on IRAK1, 100 to 1000 nM.
Regarding `CN1C(=O)CCC1(C)c1ccc2c(c1)nc(NC(=O)c1cccc(C(F)F)c1)n2CCCO` (stereo not drawn) [Compound 31, 3-Difluoromethyl-N-[5-(1,2-dimethyl-5-oxo-pyrrolidin-2-yl)-1-(3-hydroxy-propyl)-1H-benzoimidazol-2-yl]-benzamide], the IC50 at IRAK4 was at most 100 nM; in test [1] it was 1000 to 10000 nM; at IRAK1 it was 100 to 1000 nM.

The record behind these values is US9969710B2, “Heteroaryl compounds as IRAK inhibitors and uses thereof” (Merck Patent GmbH, priority 2015, dated 2018).
